Results on 9 molecules are retold here after patent US10412961B2, “Substituted 2,3-dihydrobenzofuran compounds and their use as synergists” (Endura SPA, priority 2015, dated 2019).

Structures are written as SMILES.

Series [1] addresses T1, E4, a resistance-associated esterase (Myzus persicae, UniProt P35501).
T1 sequence (P35501 24-552): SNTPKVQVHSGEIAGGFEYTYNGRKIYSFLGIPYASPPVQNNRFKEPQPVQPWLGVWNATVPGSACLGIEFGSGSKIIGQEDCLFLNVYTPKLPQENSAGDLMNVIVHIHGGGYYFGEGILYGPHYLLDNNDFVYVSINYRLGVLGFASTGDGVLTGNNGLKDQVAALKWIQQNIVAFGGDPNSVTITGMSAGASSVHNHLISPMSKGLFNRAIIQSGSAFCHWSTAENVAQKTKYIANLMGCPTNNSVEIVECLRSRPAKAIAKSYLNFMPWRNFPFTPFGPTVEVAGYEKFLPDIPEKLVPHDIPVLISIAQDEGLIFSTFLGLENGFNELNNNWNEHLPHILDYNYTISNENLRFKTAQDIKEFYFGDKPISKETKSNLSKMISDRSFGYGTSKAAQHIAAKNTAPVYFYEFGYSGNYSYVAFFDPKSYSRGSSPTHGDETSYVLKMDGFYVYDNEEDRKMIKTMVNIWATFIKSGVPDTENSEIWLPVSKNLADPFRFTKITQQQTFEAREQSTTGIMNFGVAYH
The settings on record: compared with PBO; cited from earlier work.

The target in series [2] is T2, FE4 Myzus persicae esterases (Myzus persicae, UniProt P35502).
T2 construct: would be utilised for the purified esterases from aphids; from tissue; host or cells: aphids (Myzus persicae), purified esterase
T2 sequence (P35502 24-564): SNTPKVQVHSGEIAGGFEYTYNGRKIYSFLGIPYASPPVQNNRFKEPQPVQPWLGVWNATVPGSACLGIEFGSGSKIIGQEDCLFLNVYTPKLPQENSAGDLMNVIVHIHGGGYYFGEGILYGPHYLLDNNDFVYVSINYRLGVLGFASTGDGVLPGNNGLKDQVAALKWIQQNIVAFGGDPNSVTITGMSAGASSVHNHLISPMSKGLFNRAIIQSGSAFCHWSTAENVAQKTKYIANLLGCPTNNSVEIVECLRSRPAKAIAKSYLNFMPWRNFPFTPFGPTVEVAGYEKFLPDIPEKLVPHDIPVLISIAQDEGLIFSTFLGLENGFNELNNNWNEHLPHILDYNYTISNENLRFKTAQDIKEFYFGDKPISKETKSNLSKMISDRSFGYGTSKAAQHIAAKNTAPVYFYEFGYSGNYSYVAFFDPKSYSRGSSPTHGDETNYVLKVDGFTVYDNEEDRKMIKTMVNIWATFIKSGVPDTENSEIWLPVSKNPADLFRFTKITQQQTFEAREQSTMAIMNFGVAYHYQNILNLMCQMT
Put plainly: Inhibition of esterase FE4, 4-nitrophenyl acetate model substrate assay. The series is classed as biochemical. To be noted: purified FE4, 2.5 μL of 10 mM compound in acetone, 10 min incubation, substrate 4-nitrophenyl acetate 0.8 mM, read at 405 nm. Here is the method: Inhibition of Esterasenzymes by Synergists in Myzus persicae
It was envisaged, therefore, that the ‘esterase intereference assay’ (Khot et al., 2008) would be utilised for the purified esterases from aphids. Various esterase substrates were assessed to find one suitable of monitoring inhibition in an insect homogenate. The Myzus persicae resistance associated esterase, FE4, was used.
Initially the esterase interference assay was carried out, as being the ‘absolute’ protocol for characterizing interactions between the compounds of Example 1-9 and FE4. However, since this is a protracted method, a selection of products already reported in the literature were used to compare the interference assay and the use of a model substrate.
From the literature (Philippou et al., 2013) it is known that 1-naphthyl acetate is not suitable for this assay. Instead, 4-nitrophenyl acetate was used. A 10 mM pNA stock was prepared in acetone and added to 0.02 M phosphate buffer pH 7.0 (final concentration 2 mM). The comparison was made with 6 PBO analogues of variable efficacy.
For the assay 10 μL of purified FE4 was diluted to a total volume of 50 μL by the addition of 0.02 M phosphate buffer, pH 7.0 in individual wells of a microplate (maxisorb, NUNC). To each well, 2.5 μL of 10 mM of the compound of Example 1 and of Example 2 in acetone was added and incubated for 10 mins, with acetone only used as a control. Following incubation, 100 μL of 0.02 phosphate buffer, pH 7.0 and 100 μL of 2 mM 4-nitrophenyl acetate was added (final volume in well 250 μL, final substrate concentration 0.8 mM). Enzyme activity was read at 405 nm in a Spectramax Tmax for 5 min, with readings taken every 5 secs. The rate (mOD min^−1) was calculated by the integrated software, Softmax Pro v.5.4.

Series [3] concerns Bemisia tabaci CYPCM1. The settings on record: recombinant enzyme 50 μL + 3 μL of 10 mM compound stock in acetone, 10 min incubation at room temperature, substrate 7-ethoxycoumarin, NADPH.
Protocol: Ability of the compounds of the invention to inhibit oxidative enzymes (P450), a major mechanism conferring resistance to xenobiotics, was measured using recombinant enzymes corresponding to CYPCM1 from Bemisia tabaci.
Substrate used was 7-ethoxycoumarin for inhibition assays as described by Ulrich and Weber (1972) and adapted to microplate format as described by De Sousa et al. (1995).
Diluted recombinant enzyme (50 μL) was mixed with 3 μL of the above mentioned compound stock solutions, with acetone only used as a control. After 10 min incubation at room temperature, 80 μL of 0.125 mM 7- ethoxycoumarin was added, followed by 10 μL 9.6 mM NADPH (nicotinamide adenine dinucleotide phosphate) in 0.1 M sodium phosphate, pH 7.8, and O-deethylation activity monitored as above. A PBO solution (10 mM) was prepared in the same way as a comparison.

For orientation: remaining activity means the share of the control activity or signal that is left under treatment.

Consider `CC#CCOc1ccc2c(c1)OCC2` [EN16-18, 6-(but-2-ynyloxy)-2,3-dihydrobenzofuran], for which the binding affinity entry in series [1] is recorded as “comparable with PBO”. Regarding `C#CCOCc1cc(CCCCCC)cc2c1OCC2` [Example 1, 5-n-hexyl-7-((prop-2-ynyloxy)methyl)-2,3-dihydrobenzofuran], in series [2], the remaining activity at 10000 µM (stock) is 26.2%. As to `CC#CCOCc1cc(CCCCCC)cc2c1OCC2` [Example 2, 5-n-hexyl-7-((but-2-ynyloxy)methyl)-2,3-dihydrobenzofuran], the “% activity remaining” value in series [3] stood at 27.49%. Besides, the remaining activity at 10000 µM (stock) in series [2] stood at 35.4%.

Consider `CC#CCOCc1cc(CCCC)cc2c1OCC2` [Example 3, 5-n-butyl-7-((but-2-ynyloxy)methyl)-2,3-dihydrobenzofuran], for which, in series [3], the “% activity remaining” value is on record as 3.16%. For the same molecule, the remaining activity at 10000 µM (stock) in series [2] is 19.9%. The matching figures for `CC#CCOc1cc(CCCCCC)cc2c1OCC2` [Example 4, 5-n-hexyl-7-(but-2-ynyloxy)-2,3-dihydrobenzofuran]: 39.22% and 24%.

For `C#CCOCc1cc(CCCC)cc2c1OCC2` [Example 5, 5-n-butyl-7-((prop-2-ynyloxy)methyl)-2,3-dihydrobenzofuran], the “% activity remaining” value in series [3] is 87.62%. Besides, the remaining activity at 10000 µM (stock) in series [2] came out at 18.4%. As to `C#CCOc1cc(CCCCCC)cc2c1OCC2` [Example 6, 5-n-hexyl-7-(prop-2-ynyloxy)-2,3-dihydrobenzofuran], the “% activity remaining” value in series [3] amounted to 61.16%. Also, in series [2], the remaining activity at 10000 µM (stock) is 29.8%. The matching figures for `CC#CCOCc1cc(CCC)cc2c1OCC2` [Example 7, 5-n-propyl-7-((but-2-ynyloxy)methyl)-2,3-dihydrobenzofuran]: 17.92% and 19.9%. The matching figures for `C#CCOCc1cc(CCC)cc2c1OCC2` [Example 8, 5-n-propyl-7-((prop-2-ynyloxy)methyl)-2,3-dihydrobenzofuran]: 86.22% and 23.9%.
